From ChEMBL document CHEMBL1132104, “Synthesis and SAR of thioester and thiol inhibitors of IMP-1 metallo-beta-lactamase” (Bioorg Med Chem Lett, 1999) come the findings set out here.

The experiment in a line: Inhibitory activity against IMP-1 metallo-beta-lactamase (MBL).

What is called IC50 is the concentration that inhibits the measured activity by half. Read a high IC50 as weaker potency. `O=C(S[C@H](Cc1ccc(-c2ccccc2)cc1)C(=O)O)c1ccccc1` showed an IC50 of 0.00041 µM.

As to `C[C@@H](NC(=O)c1ccc2ccccc2c1)C(=O)S[C@H](Cc1ccc(-c2ccccc2)cc1)C(=O)O`, half-maximal inhibition (IC50) was put at 18 µM. Under `CC(=O)S[C@@H](Cc1ccccc1)C(=O)O` stands 740 µM; under `CC(C)C(=O)N[C@H](C)C(=O)S[C@H](Cc1ccc(-c2ccccc2)cc1)C(=O)O`, 9.7 µM.

Turning to `CC(=O)N[C@H](C)C(=O)S[C@H](Cc1ccccc1)C(=O)O`, the half-inhibitory concentration (IC50) was found to be 63 µM. Under `CCC(=O)N[C@H](C)C(=O)S[C@H](Cc1ccc(-c2ccccc2)cc1)C(=O)O` stands 9.5 µM; under `C[C@@H](NC(=O)Cc1cccnc1)C(=O)S[C@H](Cc1ccc(-c2ccccc2)cc1)C(=O)O`, 32 µM; under `O=C(O)[C@H](S)Cc1ccc(-c2ccccc2)cc1`, 0.057 µM.

The molecule `C[C@@H](NC(=O)Cc1ccc(N(C)C)cc1)C(=O)S[C@H](Cc1ccc(-c2ccccc2)cc1)C(=O)O` displayed an IC50 of 55 µM. Turning to `C[C@@H](NC(=O)CNC(=O)c1ccccc1)C(=O)S[C@H](Cc1ccc(-c2ccccc2)cc1)C(=O)O`, the IC50 is 50 µM.

With `C[C@@H](NC(=O)c1cccc(N(C)C)c1)C(=O)S[C@H](Cc1ccc(-c2ccccc2)cc1)C(=O)O`, 15 µM corresponded to half-maximal inhibition (IC50). Under `CCCCC(=O)N[C@H](C)C(=O)S[C@H](Cc1ccc(-c2ccccc2)cc1)C(=O)O` stands 4.8 µM.

`C=CCOC(=O)N[C@H](C)C(=O)S[C@H](Cc1ccc(-c2ccccc2)cc1)C(=O)O` gave an IC50 of 4.4 µM. Under `CC(=O)N[C@H](C)C(=O)S[C@H](Cc1ccc2oc3ccccc3c2c1)C(=O)O` stands 2 µM. `CC(=O)S[C@H](Cc1ccc(-c2ccccc2)cc1)C(=O)O` had an IC50 of 0.084 µM.

In turn, `C[C@@H](NC(=O)CCC(=O)O)C(=O)S[C@H](Cc1ccc(-c2ccccc2)cc1)C(=O)O` showed an IC50 of 4.7 µM. As to `C[C@@H](NC(=O)c1ccccc1)C(=O)SCC(=O)O`, the concentration for half-maximal inhibition (IC50) was found to be 240 µM. In the case of `O=C(S[C@H](Cc1ccccc1)C(=O)O)c1ccccc1` it was 0.064 µM; in that of `CC(=O)S[C@H](Cc1ccc2oc3ccccc3c2c1)C(=O)O`, 0.045 µM. Molecule `C[C@@H](NC(=O)Cc1ccc(O)cc1)C(=O)S[C@H](Cc1ccc(-c2ccccc2)cc1)C(=O)O` came in with a half-inhibitory concentration (IC50) of 3.1 µM.

For `C[C@@H](NC(=O)CCCC(=O)O)C(=O)S[C@H](Cc1ccc(-c2ccccc2)cc1)C(=O)O`, the IC50 is 91 µM. Molecule `CC(C)CC(=O)N[C@H](C)C(=O)S[C@H](Cc1ccc(-c2ccccc2)cc1)C(=O)O` registered an IC50 of 5.3 µM. In the case of `C[C@@H](NC(=O)c1ccccc1)C(=O)S[C@H](Cc1ccc2oc3ccccc3c2c1)C(=O)O` it was 1.5 µM; in that of `O=C(S[C@H](Cc1ccc2oc3ccccc3c2c1)C(=O)O)c1ccccc1`, 0.0013 µM; in that of `C[C@@H](NC(=O)COc1ccccc1)C(=O)S[C@H](Cc1ccc(-c2ccccc2)cc1)C(=O)O`, 1 µM. The molecule `CC(=O)N[C@H](C)C(=O)S[C@H](Cc1ccc(-c2ccccc2)cc1)C(=O)O` returned an IC50 of 18 µM. In the case of `COc1cc(OC)c(C(=O)N[C@H](C)C(=O)S[C@H](Cc2ccc(-c3ccccc3)cc2)C(=O)O)c(OC)c1` it was 46 µM; in that of `C[C@@H](NC(=O)c1ccccc1)C(=O)S[C@H](Cc1ccc(-c2ccccc2)cc1)C(=O)O`, 3.6 µM; in that of `O=C(O)[C@@H](S)Cc1ccccc1`, 3.7 µM. In turn, `COc1cccc(C(=O)N[C@H](C)C(=O)S[C@H](Cc2ccc(-c3ccccc3)cc2)C(=O)O)c1` showed a half-maximal inhibitory concentration (IC50) of 38 µM. `CCCCCC(=O)N[C@H](C)C(=O)S[C@H](Cc1ccc(-c2ccccc2)cc1)C(=O)O` returned an IC50 of 13 µM. In the case of `C/C=C/C(=O)N[C@H](C)C(=O)S[C@H](Cc1ccc(-c2ccccc2)cc1)C(=O)O` it was 33 µM.

For `C[C@@H](NC(=O)Cc1cccc2ccccc12)C(=O)S[C@H](Cc1ccc(-c2ccccc2)cc1)C(=O)O`, the IC50 turned out to be 12 µM. In the case of `C[C@@H](NC(=O)Cc1ccccc1)C(=O)S[C@H](Cc1ccc(-c2ccccc2)cc1)C(=O)O` it was 5.8 µM; in that of `C[C@@H](NC(=O)c1ccccc1)C(=O)S[C@@H](Cc1ccc2oc3ccccc3c2c1)C(=O)O`, 430 µM; in that of `C=CCOC(=O)N[C@H](C)C(=O)S[C@H](Cc1ccc2oc3ccccc3c2c1)C(=O)O`, 2.9 µM. Under `CC(=O)S[C@@H](Cc1ccc(-c2ccccc2)cc1)C(=O)O` stands 74 µM; under `C[C@@H](NC(=O)c1ccccc1)C(=O)S[C@H](Cc1ccccc1)C(=O)O`, 20 µM; under `CCCC(=O)N[C@H](C)C(=O)S[C@H](Cc1ccc(-c2ccccc2)cc1)C(=O)O`, 9.3 µM. Under `C[C@@H](NC(=O)Cc1ccccc1OCc1ccccc1)C(=O)S[C@H](Cc1ccc(-c2ccccc2)cc1)C(=O)O` stands 24 µM; under `C=CCOC(=O)N[C@H](C)C(=O)S[C@H](Cc1ccccc1)C(=O)O`, 64 µM. Regarding `CC(=O)S[C@@H](Cc1ccc2oc3ccccc3c2c1)C(=O)O`, the IC50 was 160 µM. Under `C[C@@H](NC(=O)/C=C/c1ccccc1)C(=O)S[C@H](Cc1ccc(-c2ccccc2)cc1)C(=O)O` stands 11 µM; under `C[C@@H](NC(=O)CCC(=O)c1ccccc1)C(=O)S[C@H](Cc1ccc(-c2ccccc2)cc1)C(=O)O`, 0.25 µM; under `O=C(S[C@@H](Cc1ccc2oc3ccccc3c2c1)C(=O)O)c1ccccc1`, 49 µM. With `COc1ccc(CC(=O)N[C@H](C)C(=O)S[C@H](Cc2ccc(-c3ccccc3)cc2)C(=O)O)cc1`, inhibition was half-maximal at 12 µM (IC50). Under `CC(=O)S[C@H](Cc1ccccc1)C(=O)O` stands 12 µM; under `C[C@@H](NC(=O)CCc1ccccc1)C(=O)S[C@H](Cc1ccc(-c2ccccc2)cc1)C(=O)O`, 15 µM.

With `O=C(O)[C@H](S)Cc1ccccc1`, half-maximal inhibition (IC50) required 0.086 µM. Regarding `O=C(O)[C@H](S)Cc1ccc2oc3ccccc3c2c1`, the IC50 was found to be 0.023 µM. Under `C[C@@H](NC(=O)CSCC(=O)O)C(=O)S[C@H](Cc1ccc(-c2ccccc2)cc1)C(=O)O` stands 13 µM; under `O=C(O)[C@@H](S)Cc1ccc2oc3ccccc3c2c1`, 0.25 µM; under `O=C(S[C@@H](Cc1ccc(-c2ccccc2)cc1)C(=O)O)c1ccccc1`, 120 µM. In the case of `O=C(S[C@@H](Cc1ccccc1)C(=O)O)c1ccccc1`, 2.5 µM corresponded to half-maximal inhibition (IC50). In the case of `O=C(O)[C@@H](S)Cc1ccc(-c2ccccc2)cc1` it was 1.2 µM; in that of `COc1ccc(C(=O)N[C@H](C)C(=O)S[C@H](Cc2ccc(-c3ccccc3)cc2)C(=O)O)cc1`, 29 µM.
